ChEMBL document CHEMBL5696442, “Discovery of type II inhibitors of TGFβ-activated kinase 1 (TAK1) and mitogen-activated protein kinase kinase kinase kinase 2 (MAP4K2)” (J Med Chem, 2015)
Activity calls are given as the source filed them. The rule behind the calls is not given here.

Columns and labels:
[1] = biological target: Calcium/calmodulin-dependent protein kinase type II subunit alpha (Homo sapiens) (UniProt Q9UQM7); assay: Inhibition of CaMK2a Lys2 labeling site in human Huh-7 cells at 1 uM by KiNativ Profiling analysis relative to control; format: cell-based
Chain of Calcium/calmodulin-dependent protein kinase type II subunit alpha (Homo sapiens) (Q9UQM7 whole entry): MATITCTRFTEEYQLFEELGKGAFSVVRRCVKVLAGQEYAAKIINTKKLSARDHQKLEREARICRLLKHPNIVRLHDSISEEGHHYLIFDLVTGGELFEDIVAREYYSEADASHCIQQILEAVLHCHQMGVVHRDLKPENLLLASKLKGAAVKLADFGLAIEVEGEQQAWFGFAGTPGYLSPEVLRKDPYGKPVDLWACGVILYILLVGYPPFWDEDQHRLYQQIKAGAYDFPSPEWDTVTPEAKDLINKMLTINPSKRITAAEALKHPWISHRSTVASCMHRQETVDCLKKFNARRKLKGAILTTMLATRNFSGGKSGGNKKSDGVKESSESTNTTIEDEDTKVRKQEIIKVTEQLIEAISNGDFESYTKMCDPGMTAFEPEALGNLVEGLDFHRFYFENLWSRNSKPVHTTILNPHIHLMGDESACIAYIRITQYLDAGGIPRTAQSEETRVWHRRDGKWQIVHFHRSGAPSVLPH

[2] = biological target: T1, Serine/threonine-protein kinase Sgk3 (Homo sapiens) (UniProt Q96BR1); assay: Inhibition of SGK3 Lys1 labeling site in human Huh-7 cell lysate at 1 uM by KiNativ Profiling analysis relative to control; format: subcellular
T1 sequence (whole entry): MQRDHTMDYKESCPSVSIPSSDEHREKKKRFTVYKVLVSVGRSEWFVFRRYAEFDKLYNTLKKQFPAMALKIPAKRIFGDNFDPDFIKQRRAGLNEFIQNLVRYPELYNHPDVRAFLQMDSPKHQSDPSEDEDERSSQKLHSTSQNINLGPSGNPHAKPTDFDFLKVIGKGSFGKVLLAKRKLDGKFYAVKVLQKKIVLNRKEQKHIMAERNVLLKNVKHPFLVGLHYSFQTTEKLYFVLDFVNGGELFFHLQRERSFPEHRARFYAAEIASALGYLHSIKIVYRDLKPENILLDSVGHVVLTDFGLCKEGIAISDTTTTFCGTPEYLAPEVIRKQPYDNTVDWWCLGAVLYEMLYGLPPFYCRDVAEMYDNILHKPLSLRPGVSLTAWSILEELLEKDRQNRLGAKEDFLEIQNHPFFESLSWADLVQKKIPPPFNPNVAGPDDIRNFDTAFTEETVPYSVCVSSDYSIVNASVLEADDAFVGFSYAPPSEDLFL

[3] = biological target: Ribosomal protein S6 kinase alpha-3 (Homo sapiens) (UniProt P51812); assay: Inhibition of RSK2 domain2 Lys2 labeling site DLKPSNILYVDESGNPESIR in human Huh-7 cell lysate at 1 uM by KiNativ Profiling analysis relative to control; format: subcellular
Chain of Ribosomal protein S6 kinase alpha-3 (Homo sapiens) (P51812 whole entry, the tested form may be a part): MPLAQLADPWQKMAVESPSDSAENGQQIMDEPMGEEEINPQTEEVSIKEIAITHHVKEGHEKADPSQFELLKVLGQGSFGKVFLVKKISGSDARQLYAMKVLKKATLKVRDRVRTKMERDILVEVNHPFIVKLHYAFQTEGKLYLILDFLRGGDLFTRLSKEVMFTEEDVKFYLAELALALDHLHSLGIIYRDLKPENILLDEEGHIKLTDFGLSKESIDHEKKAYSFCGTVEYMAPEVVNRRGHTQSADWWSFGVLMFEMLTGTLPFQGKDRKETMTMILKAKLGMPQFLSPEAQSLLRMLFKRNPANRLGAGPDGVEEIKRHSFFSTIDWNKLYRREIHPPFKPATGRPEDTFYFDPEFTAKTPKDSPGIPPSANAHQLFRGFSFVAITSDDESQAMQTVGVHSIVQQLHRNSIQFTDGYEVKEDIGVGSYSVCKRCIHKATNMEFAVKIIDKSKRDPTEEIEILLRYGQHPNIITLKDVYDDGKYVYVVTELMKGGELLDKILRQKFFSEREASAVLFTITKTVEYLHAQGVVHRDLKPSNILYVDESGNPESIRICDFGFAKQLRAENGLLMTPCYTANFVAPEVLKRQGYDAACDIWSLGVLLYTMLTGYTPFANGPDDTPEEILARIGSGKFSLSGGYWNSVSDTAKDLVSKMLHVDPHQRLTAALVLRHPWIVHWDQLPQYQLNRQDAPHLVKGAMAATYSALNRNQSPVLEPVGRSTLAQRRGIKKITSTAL

[4] = biological target: T2, Aurora kinase A (Homo sapiens) (UniProt O14965); assay: Inhibition of AurA ATP labeling site in human Huh-7 cell lysate at 1 uM by KiNativ Profiling analysis relative to control; format: subcellular
T2 sequence (whole entry): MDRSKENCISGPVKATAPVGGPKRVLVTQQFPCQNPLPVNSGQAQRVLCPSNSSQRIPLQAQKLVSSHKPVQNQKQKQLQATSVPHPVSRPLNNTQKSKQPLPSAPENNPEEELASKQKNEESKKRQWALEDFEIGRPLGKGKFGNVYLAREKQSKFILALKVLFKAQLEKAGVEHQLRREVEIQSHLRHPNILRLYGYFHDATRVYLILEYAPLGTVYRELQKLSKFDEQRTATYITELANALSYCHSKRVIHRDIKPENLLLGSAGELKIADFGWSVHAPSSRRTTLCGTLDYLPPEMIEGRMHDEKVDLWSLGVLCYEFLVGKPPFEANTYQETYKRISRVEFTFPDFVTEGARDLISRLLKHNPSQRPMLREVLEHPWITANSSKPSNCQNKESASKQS

[5] = biological target: T3, Serine/threonine-protein kinase TAO3 (Homo sapiens) (UniProt Q9H2K8); assay: Inhibition of TAO3 Lys2 labeling site in human Huh-7 cell lysate at 1 uM by KiNativ Profiling analysis relative to control; format: subcellular
T3 sequence (whole entry): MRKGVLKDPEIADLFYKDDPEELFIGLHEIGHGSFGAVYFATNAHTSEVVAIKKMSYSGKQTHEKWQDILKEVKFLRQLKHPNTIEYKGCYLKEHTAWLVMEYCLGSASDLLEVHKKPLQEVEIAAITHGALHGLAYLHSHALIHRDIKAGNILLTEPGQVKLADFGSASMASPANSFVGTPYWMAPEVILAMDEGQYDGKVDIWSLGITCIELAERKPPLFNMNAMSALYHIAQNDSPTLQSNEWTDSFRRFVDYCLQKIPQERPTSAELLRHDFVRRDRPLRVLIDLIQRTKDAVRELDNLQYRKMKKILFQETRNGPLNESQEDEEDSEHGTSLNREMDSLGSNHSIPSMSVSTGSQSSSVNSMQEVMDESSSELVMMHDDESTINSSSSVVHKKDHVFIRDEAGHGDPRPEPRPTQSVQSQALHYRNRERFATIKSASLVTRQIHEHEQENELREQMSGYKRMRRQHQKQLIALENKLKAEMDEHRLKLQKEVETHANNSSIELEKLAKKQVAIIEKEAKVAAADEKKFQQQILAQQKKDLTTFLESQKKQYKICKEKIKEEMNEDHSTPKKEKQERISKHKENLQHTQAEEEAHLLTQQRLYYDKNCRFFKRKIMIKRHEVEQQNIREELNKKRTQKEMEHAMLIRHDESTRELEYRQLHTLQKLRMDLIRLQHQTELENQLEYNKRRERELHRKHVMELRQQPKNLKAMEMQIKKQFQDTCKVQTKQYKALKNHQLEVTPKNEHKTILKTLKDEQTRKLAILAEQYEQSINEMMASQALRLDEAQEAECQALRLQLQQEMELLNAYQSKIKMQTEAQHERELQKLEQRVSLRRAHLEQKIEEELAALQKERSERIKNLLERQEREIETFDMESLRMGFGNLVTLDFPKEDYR

[6] = biological target: Tyrosine-protein kinase CSK (Homo sapiens, UniProt P41240); assay: Inhibition of CSK ACT labeling site harbouring VSDFGLTKEASSTQDTGK in human A-375 cells at 0.05 uM by KiNativ Profiling analysis relative to control; format: cell-based
Chain of Tyrosine-protein kinase CSK (P41240 2-450 limits assumed): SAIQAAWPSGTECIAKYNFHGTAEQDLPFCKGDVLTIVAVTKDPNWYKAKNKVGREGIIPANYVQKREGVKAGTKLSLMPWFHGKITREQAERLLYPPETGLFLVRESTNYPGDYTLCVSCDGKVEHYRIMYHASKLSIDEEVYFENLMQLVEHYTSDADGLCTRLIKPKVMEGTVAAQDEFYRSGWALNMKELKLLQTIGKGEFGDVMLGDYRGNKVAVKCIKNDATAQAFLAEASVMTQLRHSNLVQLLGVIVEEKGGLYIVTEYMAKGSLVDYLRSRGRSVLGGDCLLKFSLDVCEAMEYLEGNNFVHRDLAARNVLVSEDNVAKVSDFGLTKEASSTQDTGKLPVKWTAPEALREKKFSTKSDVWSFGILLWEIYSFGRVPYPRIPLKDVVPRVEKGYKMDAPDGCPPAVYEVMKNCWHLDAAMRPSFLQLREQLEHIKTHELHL

[7] = biological target: Ribosomal protein S6 kinase delta-1 (Homo sapiens) (UniProt Q96S38); assay: Inhibition of RPS6KC1 domain 1 ATP labeling site in human Huh-7 cells at 10 uM by KiNativ Profiling analysis relative to control; format: cell-based
Chain of Ribosomal protein S6 kinase delta-1 (Homo sapiens) (Q96S38 whole entry, the tested form may be a part): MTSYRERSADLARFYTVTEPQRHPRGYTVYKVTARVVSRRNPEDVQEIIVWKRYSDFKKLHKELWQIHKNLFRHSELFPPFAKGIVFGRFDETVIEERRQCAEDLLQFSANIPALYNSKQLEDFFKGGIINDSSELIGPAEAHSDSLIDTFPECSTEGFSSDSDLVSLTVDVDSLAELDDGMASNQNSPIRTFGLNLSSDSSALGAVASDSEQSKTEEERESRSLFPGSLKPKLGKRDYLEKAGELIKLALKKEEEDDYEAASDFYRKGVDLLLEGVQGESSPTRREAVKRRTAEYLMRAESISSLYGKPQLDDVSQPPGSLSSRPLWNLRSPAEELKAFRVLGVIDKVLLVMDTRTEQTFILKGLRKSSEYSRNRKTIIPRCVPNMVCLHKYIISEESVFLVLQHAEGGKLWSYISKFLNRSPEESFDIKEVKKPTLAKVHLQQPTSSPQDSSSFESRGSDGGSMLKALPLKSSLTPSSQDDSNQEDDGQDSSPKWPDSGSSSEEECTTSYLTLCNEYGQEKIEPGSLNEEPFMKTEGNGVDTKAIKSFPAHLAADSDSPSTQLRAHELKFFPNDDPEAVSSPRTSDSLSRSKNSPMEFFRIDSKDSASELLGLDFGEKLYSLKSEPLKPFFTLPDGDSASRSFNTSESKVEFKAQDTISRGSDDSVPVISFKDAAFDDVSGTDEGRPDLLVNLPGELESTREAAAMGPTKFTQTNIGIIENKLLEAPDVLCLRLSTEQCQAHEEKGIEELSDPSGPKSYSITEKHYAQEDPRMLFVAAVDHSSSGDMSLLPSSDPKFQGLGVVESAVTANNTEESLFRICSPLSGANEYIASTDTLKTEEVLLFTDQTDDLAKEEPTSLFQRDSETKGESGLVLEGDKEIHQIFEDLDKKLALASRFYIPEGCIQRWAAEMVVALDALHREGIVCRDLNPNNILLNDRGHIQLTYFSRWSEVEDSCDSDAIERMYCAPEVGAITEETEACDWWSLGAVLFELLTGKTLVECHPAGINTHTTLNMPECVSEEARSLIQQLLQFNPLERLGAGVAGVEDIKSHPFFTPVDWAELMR

[8] = biological target: Dual specificity tyrosine-phosphorylation-regulated kinase 1B (Homo sapiens) (UniProt Q9Y463); assay: Inhibition of DYRK1B (unknown origin) at 10 uM by Ambit Kinomescan binding assay
Chain of Dual specificity tyrosine-phosphorylation-regulated kinase 1B (Homo sapiens) (Q9Y463 whole entry, looked up): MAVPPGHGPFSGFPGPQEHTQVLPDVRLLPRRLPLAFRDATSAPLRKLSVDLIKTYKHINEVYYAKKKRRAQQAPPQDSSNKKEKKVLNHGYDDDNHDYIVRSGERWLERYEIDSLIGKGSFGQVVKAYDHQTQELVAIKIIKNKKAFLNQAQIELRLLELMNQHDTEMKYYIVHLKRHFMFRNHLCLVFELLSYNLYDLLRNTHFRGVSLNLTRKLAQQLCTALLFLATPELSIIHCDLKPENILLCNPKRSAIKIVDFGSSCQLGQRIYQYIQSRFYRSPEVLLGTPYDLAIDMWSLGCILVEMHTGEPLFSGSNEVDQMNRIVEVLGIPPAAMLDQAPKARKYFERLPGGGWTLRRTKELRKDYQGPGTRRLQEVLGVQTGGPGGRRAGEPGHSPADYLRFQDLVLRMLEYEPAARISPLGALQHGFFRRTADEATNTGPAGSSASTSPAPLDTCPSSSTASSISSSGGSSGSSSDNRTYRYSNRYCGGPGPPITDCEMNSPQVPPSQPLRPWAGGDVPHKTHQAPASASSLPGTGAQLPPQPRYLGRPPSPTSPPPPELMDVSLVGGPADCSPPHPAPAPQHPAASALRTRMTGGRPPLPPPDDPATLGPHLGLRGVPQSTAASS

[9] = biological target: Fibroblast growth factor receptor 2 (Homo sapiens) (UniProt P21802); assay: Inhibition of FGFR2 (unknown origin) at 10 uM by Ambit Kinomescan binding assay relative to control; values are per cent of control
Chain of Fibroblast growth factor receptor 2 (Homo sapiens) (P21802 22-821 limits assumed): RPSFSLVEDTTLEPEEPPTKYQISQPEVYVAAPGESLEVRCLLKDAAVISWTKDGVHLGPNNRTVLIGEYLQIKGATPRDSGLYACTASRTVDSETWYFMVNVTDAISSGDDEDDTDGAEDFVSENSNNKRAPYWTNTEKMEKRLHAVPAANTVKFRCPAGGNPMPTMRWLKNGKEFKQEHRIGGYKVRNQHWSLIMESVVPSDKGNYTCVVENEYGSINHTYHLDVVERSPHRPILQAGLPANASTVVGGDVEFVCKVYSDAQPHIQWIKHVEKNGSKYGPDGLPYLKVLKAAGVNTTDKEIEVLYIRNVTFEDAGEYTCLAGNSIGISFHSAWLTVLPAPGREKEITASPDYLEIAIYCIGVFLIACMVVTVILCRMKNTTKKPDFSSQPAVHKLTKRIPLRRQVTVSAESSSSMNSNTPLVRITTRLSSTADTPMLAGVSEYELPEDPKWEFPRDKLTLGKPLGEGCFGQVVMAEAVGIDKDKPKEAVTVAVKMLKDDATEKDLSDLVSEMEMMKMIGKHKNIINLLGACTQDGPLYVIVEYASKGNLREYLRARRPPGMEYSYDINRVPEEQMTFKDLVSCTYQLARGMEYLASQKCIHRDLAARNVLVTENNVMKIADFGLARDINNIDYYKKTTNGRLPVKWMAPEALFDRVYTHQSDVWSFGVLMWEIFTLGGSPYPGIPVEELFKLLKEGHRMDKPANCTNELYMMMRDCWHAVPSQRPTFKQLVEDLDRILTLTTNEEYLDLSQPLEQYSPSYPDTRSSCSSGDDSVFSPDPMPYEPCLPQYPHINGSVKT

[10] = biological target: Cyclin-dependent kinase 1 (Homo sapiens) (UniProt P06493); assay: Inhibition of CDC2 Lys2 labeling site harbouring VLHRDLKPQNLLIDDKGTIK in human A-375 cells at 0.5 uM by KiNativ Profiling analysis relative to control; format: cell-based
Chain of Cyclin-dependent kinase 1 (Homo sapiens) (P06493 whole entry, looked up): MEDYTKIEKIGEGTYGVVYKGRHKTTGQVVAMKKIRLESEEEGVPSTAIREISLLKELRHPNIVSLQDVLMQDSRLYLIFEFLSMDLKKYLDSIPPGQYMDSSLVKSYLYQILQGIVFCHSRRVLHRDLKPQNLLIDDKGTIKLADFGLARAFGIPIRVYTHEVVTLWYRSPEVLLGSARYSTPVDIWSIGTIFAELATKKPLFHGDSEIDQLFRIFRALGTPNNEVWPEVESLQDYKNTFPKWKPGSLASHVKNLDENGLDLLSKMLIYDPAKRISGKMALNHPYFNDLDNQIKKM

## CNc1cc(Oc2cc(C(=O)Nc3cc(N4CCN(C)CC4)cc(C(F)(F)F)c3)ccc2C)ncn1
[1]
  inhibition: 20.3%
[2]
  inhibition: 3.5%
[3]
  inhibition: 0.2%
[4]
  inhibition: 2.5%
[5]
  inhibition: -1.2%

## CCN1CCN(Cc2ccc(NC(=O)c3ccc(C)c(Oc4ccnc5[nH]ccc45)c3)cc2C(F)(F)F)CC1
[6]
  inhibition: 23.1%
[7]
  inhibition: 15.4%
[8]
  inhibition: inactive
[9]
  percent of control: 1.4%

## CCN1CCN(Cc2ccc(NC(=O)c3ccc(C)c(/C=C/c4cnc5[nH]ccc5c4OC)c3)cc2C(F)(F)F)CC1
[10]
  inhibition: 5.8%
